Experimental data from patent publication US7932262B2 (Novartis AG, priority 2006, dated 2011).

System: PC-3 cells
Experiment: Cell Proliferation Assay (Cell Titer Glo), PC-3 cell line
Assay type: cell-based
Conditions: Homo sapiens, PC-3, PC3 cells; read-out: CPEC50 PC3
Procedure: IV. Cell Proliferation Assay Protocol:
A2780, PC-3, or PC3MM cells were seeded at 1000 cells/well in 100 μL/well (10.000 cells/mL) growth media in 96-well plates. Cells were allowed to adhere to the bottom of plates for 3-5 hours in a 37° C. 5% CO2 incubator. Compounds were dissolved in DMSO and then transferred to the cell plates. The cells were incubated with the compounds for 3 days in a 37° C. 5% CO2 incubator. The growth medium containing the compounds was then removed from the cells and fresh medium was added, followed by 100 μL of Cell Titer Glo assay reagent (Promega). This mixture was shaken for 1 minute and then incubated without shaking for 10 minutes. Activity determinations for the compounds were made by detection on a Trilux Instrument.
V. Cell Proliferation Assay Protocol: PC-3 Cell Line
PC-3 cells were seeded at 1000 cells/well in 100 μL/well (10.000 cells/mL) along with growth media into black-walled, clear bottom 96-well plates. The cells were allowed to adhere to the bottom of the plate for 3-5 hours in a 37° C. 5% CO2 incubator.
Test compounds were diluted to 500× in DMSO. The DMSO solutions of six of the compounds were transferred to the cells in the 96 well round bottom plate, column 2, row B-F. A 1:3 serial dilution of each compound was carried out. The serial dilution comprised adding 20 μL of DMSO to the wells containing the compounds and doing a 1:3 dilution across the plate from columns 2-10. Column 11 contained only DMSO. The serial dilution was carried out using a BioMek 2000 protocol “CP Serial Dilution using 250 μL tips” or “Proliferation Compound” (if using 20 μL tips).
To a 96 deep well block, columns 2-11 rows B-F, was transferred 500 μL of growth medium. Using the FX protocol “HH_CellAssay—2 μL to 500 μL”, 2 μL of compound from each cell of the compound plate was transferred to the corresponding cell in the 96 deep well block containing 500 μL of growth medium. The instrument was programmed to dilute the compound in growth medium and then transfer 100 μL of that mixture to cell plates containing cells. The cell plates, to which test compounds had been added, were incubated for 3 days at 37° C. Following the incubation, the medium was removed and replaced with fresh medium. Cell Titer Glo (100 μL) was added to each well and the plate was shaken for 1 minute and then incubated without shaking for 10 minutes. The plates were then read using a Trilux instrument.

EC50 | Structure (SMILES)
< 5 µM | CCN1CCC(Oc2ccc3cnc(Nc4cc(OC)cc(OC)c4)nc3c2)CC1 [Compound 958, N-(3,5-dimethoxyphenyl)-7-(1-ethylpiperidin-4-yloxy)quinazolin-2-amine]
< 5 µM | CC(C)N1CCC(Oc2ccc3cnc(Nc4ccc(Cl)cc4)nc3c2)CC1 [Compound 959, N-(4-chlorophenyl)-7-(1-isopropylpiperidin-4-yloxy)quinazolin-2-amine]
< 5 µM | CC(C)NS(=O)(=O)c1ccc(Nc2ncc3ccc(OC4CCN(C(C)C)CC4)cc3n2)cc1 [Compound 961, N-isopropyl-4-(7-(1-isopropylpiperidin-4-yloxy)quinazolin-2-ylamino)benzenesulfonamide]
< 5 µM | CNC(=O)Cc1ccc(Nc2ncc3cccc(OC4CCN(C(C)C)CC4)c3n2)cc1 [Compound 966, 2-(4-(8-(1-isopropylpiperidin-4-yloxy)quinazolin-2-ylamino)phenyl)-N-methylacetamide]
< 5 µM | CC(C)NC(=O)Cc1ccc(Nc2ncc3cccc(OC4CCN(C(C)C)CC4)c3n2)cc1 [Compound 967, N-isopropyl-2-(4-(8-(1-isopropylpiperidin-4-yloxy)quinazolin-2-ylamino)phenyl)acetamide]
< 5 µM | CC(C)N1CCC(Oc2cccc3cnc(Nc4ccc(N5CCOCC5)cc4)nc23)CC1 [Compound 968, 8-(1-isopropylpiperidin-4-yloxy)-N-(4-morpholinophenyl)quinazolin-2-amine]
< 5 µM | CC(=O)Nc1ccc(Nc2ncc3cccc(OC4CCN(C(C)C)CC4)c3n2)cc1 [Compound 969]
< 5 µM | CC(C)N1CCC(Oc2cccc3cnc(Nc4ccc(CC(N)=O)cc4)nc23)CC1 [Compound 970, 2-(4-(8-(1-isopropylpiperidin-4-yloxy)quinazolin-2-ylamino)phenyl)acetamide]
< 5 µM | Fc1ccc(Nc2ncc3ccc(OC4CCNCC4)cc3n2)cc1 [Compound 988, N-(4-fluorophenyl)-7-(piperidin-4-yloxy)quinazolin-2-amine]
5 to 10 µM | CC(C)N1CCC(Oc2ccc3cnc(Nc4ccc(F)cc4)nc3c2)CC1 [Compound 989, N-(4-fluorophenyl)-7-(1-isopropylpiperidin-4-yloxy)quinazolin-2-amine]
< 5 µM | CNS(=O)(=O)Cc1ccc(Nc2ncc3ccc(OC4CCN(C(C)C)CC4)cc3n2)cc1 [Compound 990, 1-(4-(7-(1-isopropylpiperidin-4-yloxy)quinazolin-2-ylamino)phenyl)-N-methylmethanesulfonamide]
< 5 µM | CC(C)N1CCC(Oc2cccc3cnc(Nc4ccc(NC(=O)N5CCCC5)cc4)nc23)CC1 [Compound 992, N-(4-(8-(1-isopropylpiperidin-4-yloxy)quinazolin-2-ylamino)phenyl)pyrrolidine-1-carboxamide]
5 to 10 µM | CC(C)N1CCC(Oc2cccc3cnc(Nc4cccc(CC(N)=O)c4)nc23)CC1 [Compound 1002, 2-(3-(8-(1-isopropylpiperidin-4-yloxy)quinazolin-2-ylamino)phenyl)acetamide]
< 5 µM | CNC(=O)Cc1cccc(Nc2ncc3cccc(OC4CCN(C(C)C)CC4)c3n2)c1 [Compound 1003, 2-(3-(8-(1-isopropylpiperidin-4-yloxy)quinazolin-2-ylamino)phenyl)-N-methylacetamide]
< 5 µM | CNC(=O)Cc1cccc(NC(=O)Cc2cccc(Nc3ncc4cccc(OC5CCN(C(C)C)CC5)c4n3)c2)c1 [Compound 1004, 2-(3-(8-(1-isopropylpiperidin-4-yloxy)quinazolin-2-ylamino)phenyl)-N-(3-(2-(methylamino)-2-oxoethyl)phenyl)acetamide]
< 5 µM | CC(C)NC(=O)Cc1cccc(Nc2ncc3cccc(OC4CCN(C(C)C)CC4)c3n2)c1 [Compound 1005, N-isopropyl-2-(3-(8-(1-isopropylpiperidin-4-yloxy)quinazolin-2-ylamino)phenyl)acetamide]
5 to 10 µM | CC(C)N1CCC(Oc2cccc3cnc(Nc4cccc(N5CCOCC5)c4)nc23)CC1 [Compound 1006, 8-(1-isopropylpiperidin-4-yloxy)-N-(3-morpholinophenyl)quinazolin-2-amine]
< 5 µM | CC(=O)Nc1cccc(Nc2ncc3cccc(OC4CCN(C(C)C)CC4)c3n2)c1 [Compound 1007, N-(3-(8-(1-isopropylpiperidin-4-yloxy)quinazolin-2-ylamino)phenyl)acetamide]
< 5 µM | CNS(=O)(=O)Cc1ccc(Nc2ncc3cccc(OC4CCN(C(C)C)CC4)c3n2)cc1 [Compound 1008, 1-(4-(8-(1-isopropylpiperidin-4-yloxy)quinazolin-2-ylamino)phenyl)-N-methylmethanesulfonamide]
5 to 10 µM | CC(C)N1CCC(Oc2cccc3cnc(Nc4ccc(F)cc4)nc23)CC1 [Compound 1009, N-(4-fluorophenyl)-8-(1-isopropylpiperidin-4-yloxy)quinazolin-2-amine]
< 5 µM | CC(C)N1CCC(Oc2cccc3cnc(Nc4ccc(Cl)cc4)nc23)CC1 [Compound 1010, N-(4-chlorophenyl)-8-(1-isopropylpiperidin-4-yloxy)quinazolin-2-amine]
< 5 µM | CC(C)N1CCC(Oc2cccc3cnc(Nc4ccc(C(F)(F)F)cc4)nc23)CC1 [Compound 1011, 8-(1-isopropylpiperidin-4-yloxy)-N-(4-(trifluoromethyl)phenyl)quinazolin-2-amine]
5 to 10 µM | CC(C)N1CCC(Oc2ccc3cnc(Nc4ccc(N)c(Cl)c4)nc3c2)CC1 [Compound 1013, 3-chloro-N1-(7-(1-isopropylpiperidin-4-yloxy)quinazolin-2-yl)benzene-1,4-diamine]
< 5 µM | CC(=O)Nc1ccc(Nc2ncc3ccc(OC4CCNCC4)cc3n2)cc1C [Compound 1014, N-(2-methyl-4-(7-(piperidin-4-yloxy)quinazolin-2-ylamino)phenyl)acetamide]
< 5 µM | C#Cc1cc(OC2CCN(C(C)C)CC2)c2nc(Nc3ccc(S(N)(=O)=O)cc3)ncc2c1 [Compound 1015, 4-(6-ethynyl-8-(1-isopropylpiperidin-4-yloxy)quinazolin-2-ylamino)benzenesulfonamide]
